Species: Rattus norvegicus
Experiment: Open TG-GATES - Regimen: Single
Assay type: toxicity, organism-based, Sprague-Dawley
Set-up: regimen Single, gender Male, age 6 weeks
Conditions: in vivo, ip, 24 h, route intraperitoneal injection; for Bas / Eos / Hb / Ht / Lym / MCH / MCHC / MCV / Mono / Neu / Plat / RBC / Ret / WBC: tissue Blood; for KIDNEY_L / KIDNEY_R / KIDNEY_TOTAL: tissue Kidney; for LIVER: tissue Liver; for A/G / ALP / ALT / AST / BUN / CRE / Ca / Cl / DBIL / GLC / IP / K / LDH / Na / PL / RALB / TBIL / TC / TG / TP / gamma-GTP: tissue Plasma

With `CN(N=O)C(N)=O` [N-METHYL-N-NITROSUREA] the TERMINAL_BW (0 mg/kg, dose level Control) was 240.3 g, the Bas (0 mg/kg, dose level Control) was 0% and the Eos (0 mg/kg, dose level Control) was 0.8%. The Hb (0 mg/kg, dose level Control) was 12.5 g/dL, the Ht (0 mg/kg, dose level Control) was 38.8% and the Lym (0 mg/kg, dose level Control) was 78.8%. It also gave an MCH (0 mg/kg, dose level Control) of 19.9 pg, an MCHC (0 mg/kg, dose level Control) of 32.4% and an MCV (0 mg/kg, dose level Control) of 61.6 fL. It also gave a Mono (0 mg/kg, dose level Control) of 2.4%, a Neu (0 mg/kg, dose level Control) of 17.6% and a Plat (0 mg/kg, dose level Control) of 125.4 x10_4/uL. For the same compound, the RBC (0 mg/kg, dose level Control) was 629.8 x10_4/ul, the Ret (0 mg/kg, dose level Control) was 8.1% and the WBC (0 mg/kg, dose level Control) was 104.4 x10_2/uL. It also gave a KIDNEY_L (0 mg/kg, dose level Control) of 1 g, a KIDNEY_R (0 mg/kg, dose level Control) of 1 g and a KIDNEY_TOTAL (0 mg/kg, dose level Control) of 2 g. It also gave an LIVER (0 mg/kg, dose level Control) of 11.1 g, an A/G (0 mg/kg, dose level Control) of 1 and an ALP (0 mg/kg, dose level Control) of 1557.2 IU/L. For the same compound, the ALT (0 mg/kg, dose level Control) was 41.2 IU/L, the AST (0 mg/kg, dose level Control) was 72.8 IU/L and the BUN (0 mg/kg, dose level Control) was 17.5 mg/dL. The CRE (0 mg/kg, dose level Control) was 0.2 mg/dL, the Ca (0 mg/kg, dose level Control) was 10.7 mg/dL and the Cl (0 mg/kg, dose level Control) was 102.9 meq/L. The DBIL (0 mg/kg, dose level Control) was 0 mg/dL, the GLC (0 mg/kg, dose level Control) was 198 mg/dL and the IP (0 mg/kg, dose level Control) was 7.1 mg/dL. The K (0 mg/kg, dose level Control) was 4.2 meq/L, the LDH (0 mg/kg, dose level Control) was 141.2 IU/L and the Na (0 mg/kg, dose level Control) was 141.4 meq/L. For the same compound, the PL (0 mg/kg, dose level Control) was 160 mg/dL, the RALB (0 mg/kg, dose level Control) was 2.7 g/dL and the TBIL (0 mg/kg, dose level Control) was 0.004 mg/dL. It also gave a TC (0 mg/kg, dose level Control) of 79.4 mg/dL, a TG (0 mg/kg, dose level Control) of 135 mg/dL and a TP (0 mg/kg, dose level Control) of 5.6 g/dL. For the same compound, the gamma-GTP (0 mg/kg, dose level Control) was 1 IU/L, the TERMINAL_BW (10 mg/kg, dose level Low) was 233.4 g and the Bas (10 mg/kg, dose level Low) was 0%. For the same compound, the Eos (10 mg/kg, dose level Low) was 0.2%, the Hb (10 mg/kg, dose level Low) was 13 g/dL and the Ht (10 mg/kg, dose level Low) was 39.7%. The Lym (10 mg/kg, dose level Low) was 90.2%, the MCH (10 mg/kg, dose level Low) was 19.9 pg and the MCHC (10 mg/kg, dose level Low) was 32.8%. For the same compound, the MCV (10 mg/kg, dose level Low) was 60.7 fL, the Mono (10 mg/kg, dose level Low) was 2.6% and the Neu (10 mg/kg, dose level Low) was 5.6%. It also gave a Plat (10 mg/kg, dose level Low) of 126.2 x10_4/uL, an RBC (10 mg/kg, dose level Low) of 653 x10_4/ul and a Ret (10 mg/kg, dose level Low) of 5.7%. The WBC (10 mg/kg, dose level Low) was 66.8 x10_2/uL, the KIDNEY_L (10 mg/kg, dose level Low) was 1 g and the KIDNEY_R (10 mg/kg, dose level Low) was 1 g. The KIDNEY_TOTAL (10 mg/kg, dose level Low) was 2.1 g, the LIVER (10 mg/kg, dose level Low) was 10.9 g and the A/G (10 mg/kg, dose level Low) was 1. For the same compound, the ALP (10 mg/kg, dose level Low) was 1481.4 IU/L, the ALT (10 mg/kg, dose level Low) was 33.4 IU/L and the AST (10 mg/kg, dose level Low) was 65.8 IU/L. The BUN (10 mg/kg, dose level Low) was 16.9 mg/dL, the CRE (10 mg/kg, dose level Low) was 0.1 mg/dL and the Ca (10 mg/kg, dose level Low) was 10.6 mg/dL. The Cl (10 mg/kg, dose level Low) was 102.9 meq/L, the DBIL (10 mg/kg, dose level Low) was 0.004 mg/dL and the GLC (10 mg/kg, dose level Low) was 198 mg/dL. For the same compound, the IP (10 mg/kg, dose level Low) was 7.2 mg/dL, the K (10 mg/kg, dose level Low) was 4.1 meq/L and the LDH (10 mg/kg, dose level Low) was 138.4 IU/L. It also gave a Na (10 mg/kg, dose level Low) of 141 meq/L, a PL (10 mg/kg, dose level Low) of 167.6 mg/dL and an RALB (10 mg/kg, dose level Low) of 2.9 g/dL. It also gave a TBIL (10 mg/kg, dose level Low) of 0.01 mg/dL, a TC (10 mg/kg, dose level Low) of 85.6 mg/dL and a TG (10 mg/kg, dose level Low) of 118.8 mg/dL. For the same compound, the TP (10 mg/kg, dose level Low) was 5.7 g/dL, the gamma-GTP (10 mg/kg, dose level Low) was 0.8 IU/L and the TERMINAL_BW (30 mg/kg, dose level Middle) was 227.7 g. For the same compound, the Bas (30 mg/kg, dose level Middle) was 0%, the Eos (30 mg/kg, dose level Middle) was 0% and the Hb (30 mg/kg, dose level Middle) was 11.8 g/dL. The Ht (30 mg/kg, dose level Middle) was 35.8%, the Lym (30 mg/kg, dose level Middle) was 80.2% and the MCH (30 mg/kg, dose level Middle) was 20.8 pg. The MCHC (30 mg/kg, dose level Middle) was 32.9%, the MCV (30 mg/kg, dose level Middle) was 63.3 fL and the Mono (30 mg/kg, dose level Middle) was 3.2%. It also gave a Neu (30 mg/kg, dose level Middle) of 15.4%, a Plat (30 mg/kg, dose level Middle) of 127.5 x10_4/uL and an RBC (30 mg/kg, dose level Middle) of 566 x10_4/ul. It also gave a Ret (30 mg/kg, dose level Middle) of 4.9%, a WBC (30 mg/kg, dose level Middle) of 34.5 x10_2/uL and a KIDNEY_L (30 mg/kg, dose level Middle) of 1 g. It also gave a KIDNEY_R (30 mg/kg, dose level Middle) of 1 g, a KIDNEY_TOTAL (30 mg/kg, dose level Middle) of 2 g and an LIVER (30 mg/kg, dose level Middle) of 9.9 g. It also gave an A/G (30 mg/kg, dose level Middle) of 0.9, an ALP (30 mg/kg, dose level Middle) of 1270.8 IU/L and an ALT (30 mg/kg, dose level Middle) of 35.2 IU/L. For the same compound, the AST (30 mg/kg, dose level Middle) was 70 IU/L, the BUN (30 mg/kg, dose level Middle) was 17.6 mg/dL and the CRE (30 mg/kg, dose level Middle) was 0.1 mg/dL. For the same compound, the Ca (30 mg/kg, dose level Middle) was 10.4 mg/dL, the Cl (30 mg/kg, dose level Middle) was 103.6 meq/L and the DBIL (30 mg/kg, dose level Middle) was 0.01 mg/dL. For the same compound, the GLC (30 mg/kg, dose level Middle) was 196 mg/dL, the IP (30 mg/kg, dose level Middle) was 8.3 mg/dL and the K (30 mg/kg, dose level Middle) was 3.9 meq/L. For the same compound, the LDH (30 mg/kg, dose level Middle) was 151 IU/L, the Na (30 mg/kg, dose level Middle) was 141.8 meq/L and the PL (30 mg/kg, dose level Middle) was 150.4 mg/dL. It also gave an RALB (30 mg/kg, dose level Middle) of 2.7 g/dL, a TBIL (30 mg/kg, dose level Middle) of 0.022 mg/dL and a TC (30 mg/kg, dose level Middle) of 82.6 mg/dL. For the same compound, the TG (30 mg/kg, dose level Middle) was 51.7 mg/dL, the TP (30 mg/kg, dose level Middle) was 5.6 g/dL and the gamma-GTP (30 mg/kg, dose level Middle) was 1 IU/L. It also gave a TERMINAL_BW (100 mg/kg, dose level High) of 207.9 g, a Bas (100 mg/kg, dose level High) of 0% and an Eos (100 mg/kg, dose level High) of 0%. The Hb (100 mg/kg, dose level High) was 13.8 g/dL, the Ht (100 mg/kg, dose level High) was 41.1% and the Lym (100 mg/kg, dose level High) was 14.2%. The MCH (100 mg/kg, dose level High) was 20.5 pg, the MCHC (100 mg/kg, dose level High) was 33.5% and the MCV (100 mg/kg, dose level High) was 61.1 fL. It also gave a Mono (100 mg/kg, dose level High) of 3.2%, a Neu (100 mg/kg, dose level High) of 82% and a Plat (100 mg/kg, dose level High) of 117.5 x10_4/uL. For the same compound, the RBC (100 mg/kg, dose level High) was 673.6 x10_4/ul, the Ret (100 mg/kg, dose level High) was 4.4% and the WBC (100 mg/kg, dose level High) was 13.1 x10_2/uL. The KIDNEY_L (100 mg/kg, dose level High) was 1 g, the KIDNEY_R (100 mg/kg, dose level High) was 1 g and the KIDNEY_TOTAL (100 mg/kg, dose level High) was 1.9 g. For the same compound, the LIVER (100 mg/kg, dose level High) was 9.7 g, the A/G (100 mg/kg, dose level High) was 1 and the ALP (100 mg/kg, dose level High) was 1181 IU/L. It also gave an ALT (100 mg/kg, dose level High) of 28.6 IU/L, an AST (100 mg/kg, dose level High) of 113 IU/L and a BUN (100 mg/kg, dose level High) of 16.2 mg/dL. It also gave a CRE (100 mg/kg, dose level High) of 0.1 mg/dL, a Ca (100 mg/kg, dose level High) of 10.3 mg/dL and a Cl (100 mg/kg, dose level High) of 101.6 meq/L. For the same compound, the DBIL (100 mg/kg, dose level High) was 0.01 mg/dL, the GLC (100 mg/kg, dose level High) was 197.8 mg/dL and the IP (100 mg/kg, dose level High) was 8.2 mg/dL. It also gave a K (100 mg/kg, dose level High) of 3.6 meq/L, an LDH (100 mg/kg, dose level High) of 166.4 IU/L and a Na (100 mg/kg, dose level High) of 142.3 meq/L. It also gave a PL (100 mg/kg, dose level High) of 150.4 mg/dL, an RALB (100 mg/kg, dose level High) of 2.7 g/dL and a TBIL (100 mg/kg, dose level High) of 0.016 mg/dL. For the same compound, the TC (100 mg/kg, dose level High) was 75.8 mg/dL, the TG (100 mg/kg, dose level High) was 59.3 mg/dL and the TP (100 mg/kg, dose level High) was 5.4 g/dL. It also gave a gamma-GTP (100 mg/kg, dose level High) of 0.7 IU/L.
